Results on one compound are retold here after patent US20120129212A1, “METHOD OF MONITORING ERYTHROPOIESIS” (VERTEX PHARMACEUTICALS INCORPORATED, priority 2009, published 2012).

This experiment concerns erythropoiesis (nascent erythrocytes). Description: Cobalt chloride-induced erythropoiesis in eGFP mice (FACS of erythrocyte eGFP fluorescence). Type of experiment: in vivo, hemizygous BALB/c mice. Conditions: for effect on erythropoiesis (right-shift of eGFP fluorescence curves): subcutaneous injection, six mice. Here is the method: Mice were anesthetized with isofluorane and a minute incision was made into the lateral tail vein. Approximately 1 μl of tail vein blood was diluted into 0.5 ml of sterile saline containing 3 mM EDTA and stored at 4° C. Fluorescence activated cell sorting (FACS) was performed within 6 hours of blood collection on a FACSAria (BD Biosciences, San Jose, Calif.) flow cytometer. A 488 nm laser was used to excite the eGFP and a 530/30 nm band-pass filter and a 502 nm long-pass filter were used to monitor emissions. Forward and side scatter were used to gate for single erythrocytes, with approximately one hundred thousand events measured per blood sample. Median Fluorescence Intensity (MFI) for each erythrocyte population was analyzed using FlowJo 7.2.5 software (Tree Star, Inc. Ashland, Oreg.).
Tail vein blood (1 μl) was collected daily from one-year old hemizygous BALB/c mice starting on the day before cobalt chloride treatment (Day −1) and continuing through three days after treatment (Day 3) as described in Example 1, On Day 0, six one-year old BALB/c (hemizygous) mice were subcutaneously injected with 0.1 mL saline containing 4 μmols of cobalt chloride. FACS was performed immediately following the blood draw, and data were analyzed with FlowJo software as described in Example 1.

Regarding `[Cl][Co][Cl]` [cobalt chloride], the “effect on erythropoiesis (right-shift of eGFP fluorescence curves)” value is “stimulates erythropoiesis in vivo”. The “increase in the number of nascent erythrocytes” value (4 μmols cobalt chloride s.c. on Day 0, Day 2 vs Day −1, statistically significant) was found to be 10 fold. The “effect on erythropoiesis (right-shift of eGFP fluorescence curves)” value (listed as Cobalt chloride) was “stimulated erythropoiesis in each of the six mice tested”.
